# In patent publication US12280026B2, “Use of repirinast in the prophylaxis or treatment of renal fibrosis or kidney disease” (ALGERNON PHARMACEUTICALS INC., priority 2018, dated 2025):
# Entries after “also recorded” stand apart in the source; their conditions may differ. Marks after values point to notes of the source that are not given here.
# Legend:
# [1] = tested on: C57BL/6 mice with UUO surgical ligation; assay: Example 1: UUO mice, renal function evaluation (plasma BUN, creatinine); type: in vivo; conditions: Example 1; for Reduction in BUN compared to vehicle, significance in words: Bonferroni post-test, Suplatast Tosylate 60, Iguratimod 15, Lobenzarit 48, Actarit 60, Udenafil 40 mg/kg PO QD; for BUN in comparison to control groups, in words: UUO, male C57BL/6 mice, PO QD days 1-14, doses of Table 1
# Method: (§1) Male 9-12 week old C57BL/6 mice of 23-25 grams body weight were used. All mice were acclimated for a minimum of 5 days prior to the start of the study and housed individually in microisolators throughout the study in a 12:12 light-dark cycle on a standard maintenance mouse chow diet (Harlan Teklad 2018) with food and water given ad libitum. Prior to surgery, all mice were weighed for baseline body weight.
# (§2) The UUO surgical intervention was performed according to previously described methods known in the art (Le Meur Y et al., Macrophage accumulation at a site of renal inflammation is dependent on the M-CSF/c-fms pathway, J Leukocyte Biol., 72:530-537; 2002).
# (§3) All mice were first anesthetized by intraperitoneal injection with a rodent cocktail (ketamine 10 mg/mL and Xyaline 1 mg/mL) in normal saline (10 μL/g body weight). Pedal reflex and movement of the vibrissae were used to determine the state of unconsciousness. A state of unconsciousness was confirmed after a period of about 5 minutes in all animals. All mice were then shaved on the left side of the abdomen. The shaved area was first swabbed with iodine and then swabbed with alcohol. A vertical incision was made through the skin with a #22 scalpel and the skin was then retracted. A further incision of about 2.5 cm was then made through the peritoneum avoiding any major blood vessels. The peritoneum was then retracted and the left kidney was exposed.
# (§4) The left kidney was then brought to the surface by hooking the ureter directly beneath the kidney with sterile forceps and gently manipulating the kidney upward. The ureter was ligated at two points directly below the kidney with 5-0 surgical silk with excess suture cut away and discarded post-ligation. The kidney was then gently placed back to its correct anatomical position and the abdomen was lavaged with 1 mL sterile saline to replenish fluid loss. The peritoneum and then skin were sutured with 5-0 Mersilene, and the incision site was gently wiped with iodine. All mice were then placed individually in clean cages that were set on top of a thermal blanket until recovery at about 30-60 minutes later. In some examples, sham surgery was performed as a control by following all steps of the UUO surgical intervention procedure except ligation.
# (§5) Following surgery, the mice were divided into 14 individual study groups of 8 mice each and, following post-surgical recovery, administered a once-daily oral treatment for 14 days. The mice in 12 of the 14 study groups (hereafter known as “treatment groups”) had all received the UUO surgical ligation and were treated individually with a distinct pharmacologic compound as set out in Table 1. The mice in 2 of the 14 study groups were treated individually with a pharmaceutically acceptable vehicle with no active ingredient. The pharmaceutically acceptable vehicle in all groups was 0.5% carboxymethyl cellulose (CMC). All mice were sacrificed with CO2 on post-surgical day 15.
# (§6) The dose selected for the animal studies was determined by taking the maximum known human daily dose, dividing by the average weight of an adult (˜60-70 kg) to get a human mg/kg dose. Then that number was multiplied by 12 to convert to a mouse dose based on conventional dosing tables. See Nair and Jacob, J Basic Clin Pharm March 2016-May 2016, 7(2):27-31.
# (§7) Serum collection: A blood sample was then collected from all mice and plasma analyzed for urea nitrogen and creatinine. Plasma was stored at −80° C. for possible future analysis.
# (§8) Renal Function Evaluation: Renal function and disease progression was evaluated by BUN (blood urea nitrogen) as previously described. The BUN of each study group consisted of the BUN average of all mice in each study group.
# [2] = Example 2: UUO mice, mean body weight change following surgery; type: in vivo, C57BL/6 mice; conditions: UUO, female C57BL/6 mice, PO QD days 1-14, mg/kg: Telmisartan 3, Bemithyl 200, Repirinast 30, Telmisartan+Bemithyl 3+200, Telmisartan+Repirinast 3+30, Cenicriviroc 40, Bromantane 40
# Method: (§9) In this example, healthy young female C57BL/6 mice were used for the study. At the commencement of the study, mice were between 9-12 weeks of age, weighing 23-25 g. All the mice were obtained from Charles River Laboratories.
# (§10) The mice were maintained in a controlled environment with a temp 70-72° F., humidity 30-70%, with a photo cycle of 12 hours of light and 12 hours of dark. They were provided with Harlan Teklad 2018 standard maintenance mouse chow diet and drinking water ad libitium.
# (§11) After five days of acclimatization, the mice were grouped according to their body weight. There were ten groups of ten mice each. Nine groups of ten mice each underwent UUO as described above and the other group of ten mice underwent a sham procedure to serve as a no-surgery control.
# (§12) Following surgery, the mice were divided into 10 individual study groups of 10 mice each and, following post-surgical recovery, administered a once-daily oral treatment for 14 days. The mice in 8 of the 10 study groups had all received the UUO surgical ligation and were treated individually with a distinct pharmacologic compound as set out in Table 6. The mice in 2 of the 10 study groups were treated individually with a pharmaceutically acceptable vehicle with no active ingredient. The pharmaceutically acceptable vehicle in all groups was 0.5% carboxymethyl cellulose (CMC). All mice were sacrificed with CO2 on post-surgical day 15.
# as §6, with “That” for “Then that”
# Body weight: The body weights were measured on days 1, 4, 7, 10 and 14 using a laboratory balance.
# Body weights were measured on post-surgical days 1, 4, 7, 10 and 14 as previously described. The mean body weight change of each study group was calculated using the body weight average of all mice in each study group.
# [3] = tested on: C57BL/6 mice with UUO surgical ligation; assay: Example 2: UUO mice, renal function evaluation (plasma BUN, creatinine); type: in vivo
# Method: as §9, §10, §11, §12
# as §6, with “That” for “Then that”
# as §7
# (§13) The data are presented as the mean obtained from Microsoft Excel or GraphPad Prism version 5.00 for Windows (GraphPad Software, San Diego California USA). Data were analyzed using two-way ANOVA using Bonferroni and Tamhane post-tests. Differences between groups were considered significant at p<0.05.
# as §8
# [4] = tested on: C57BL/6 mice with UUO surgical ligation; assay: Example 2: UUO mice, kidney weight evaluation; type: in vivo; conditions: group mean, UUO, female C57BL/6 mice, PO QD days 1-14, mg/kg: Telmisartan 3, Bemithyl 200, Repirinast 30, Telmisartan+Bemithyl 3+200, Telmisartan+Repirinast 3+30, Cenicriviroc 40, Bromantane 40
# Method: as §9, §10, §11, §12
# as §6, with “That” for “Then that”
# Kidney weight: The UUO was then examined in situ to ensure that the surgical ligation ties remained patent. Both the ligated (UUO) and non-ligated kidneys were removed for analysis. Weights of both kidneys were measured using a laboratory balance.
# as §13
# Kidney Weight Evaluation: Kidney weight, which indicates functional and pathological changes in the kidney, was evaluated by measuring the weight of both the ligated (UUO) and non-ligated kidneys as previously described. The ligated and non-ligated kidney weights of each study group consisted of the respective kidney weight averages of all mice in each study group.
# [5] = tested on: C57BL/6 mice with UUO surgical ligation; assay: Example 2: UUO mice, renal fibrosis evaluation (Sirius Red histology score); type: in vivo
# Method: as §9, §10, §11, §12
# as §6, with “That” for “Then that”
# (§14) Histopathology: Formalin-fixed kidney cross-section samples were subjected histopathological scoring with Sirius Red staining, and imaged at a magnification of ×20, using standard techniques. All three sections were stained and evaluated. The analysis was performed by a board-certified veterinarian pathologist. The presence of interstitial damage and severity score was assessed according to the following criteria: 0=normal; 1=light; 2=moderate; 3=severe.
# as §13
# Renal Fibrosis Evaluation: Renal fibrosis and interstitial damage was evaluated by histochemical staining of renal cross-sections with Sirius Red as previously described. The Histology Score of each study group consisted of the histology score average of all mice in each study group.
# [6] = tested on: C57BL/6 mice with UUO surgical ligation; assay: Example 1: UUO mice, renal fibrosis evaluation (Sirius Red histology score); type: in vivo; conditions: Bemithyl 200, Emoxypine 160, Suplatast Tosylate 60, Udenafil 40, Telmisartan 5 mg/kg PO QD
# Method: as §1, §2, §3, §4, §5
# The dose selected for the animal studies was determined by taking the maximum known human daily dose, dividing by the average weight of an adult (˜60-70 kg) to get a human mg/kg dose. […]
# as §14, with “The analysis was performed by a board-certified veterinarian pathologist.” left out, “0=normal, 1=light, 2=moderate,” for “0=normal; 1=light; 2=moderate;”, “3=severe. […]” for “3=severe.”
# [7] = Example 2, mg/kg PO QD: Telmisartan 3, Bemithyl 200, Repirinast 30, Telmisartan+Bemithyl 3+200, Telmisartan+Repirinast 3+30, Cenicriviroc 40, Bromantane 40
smiles,measurement,setting,value
"CC(=O)Nc1ccc(CC(=O)O)cc1 [Actarit, (4-Acetamidophenyl)acetic acid]","Reduction in BUN compared to vehicle, significance in words",[1],significant reductions in BUN
same,"BUN in comparison to control groups, in words",[1],less renal dysfunction and disease progression than the positive control treatment; also recorded: decreased in comparison to the sham surgery control group
CCCCOCCOc1ccc(-c2ccc3c(c2)/C=C(/C(=O)Nc2ccc([S@@+]([O-])Cc4cncn4CCC)cc2)CCCN3CC(C)C)cc1 [Cenicriviroc],"Mean Body Weight Change Following Surgery, Day 1",[2]; Day 1,0 g
same,"Mean Body Weight Change Following Surgery, Day 4",[2]; Day 4,-0.30 g
same,"Mean Body Weight Change Following Surgery, Day 7",[2]; Day 7,-0.12 g
same,"Mean Body Weight Change Following Surgery, Day 10",[2]; Day 10,0.18 g
same,"Mean Body Weight Change Following Surgery, Day 14",[2]; Day 14,0.82 g
same,"Level of BUN compared to vehicle or other agents, in words",[3]; [7],this reduction was not significant
same,BUN,"[3]; plasma at sacrifice day 15, group mean, * significant vs vehicle Bonferroni, # Tamhane (p<0.05), UUO, female C57BL/6 mice, PO QD days 1-14, mg/kg: Telmisartan 3, Bemithyl 200, Repirinast 30, Telmisartan+Bemithyl 3+200, Telmisartan+Repirinast 3+30, Cenicriviroc 40, Bromantane 40",19.9 mg/dL
same,Creatinine,"[3]; plasma at sacrifice day 15, group mean, UUO, female C57BL/6 mice, PO QD days 1-14, mg/kg: Telmisartan 3, Bemithyl 200, Repirinast 30, Telmisartan+Bemithyl 3+200, Telmisartan+Repirinast 3+30, Cenicriviroc 40, Bromantane 40",0.21 mg/dL
same,Drained Left Kidney,[4]; ligated kidney drained,0.1683 g
same,Excised Left Kidney,[4]; ligated kidney,0.4091 g
same,Right Kidney (g),[4]; unligated kidney,0.1342* g
same,"Level of kidney fibrosis / histology score compared to vehicle or other agents, in words",[5]; [7],statistically insignificant improvements
same,Histology Score,"[5]; Sirius Red, 0=normal, 1=light, 2=moderate, 3=severe, group mean, UUO, female C57BL/6 mice, PO QD days 1-14, mg/kg: Telmisartan 3, Bemithyl 200, Repirinast 30, Telmisartan+Bemithyl 3+200, Telmisartan+Repirinast 3+30, Cenicriviroc 40, Bromantane 40",1.63*#
same,Reduction of fibrosis (%) (versus vehicle),"[5]; from histology score, UUO, female C57BL/6 mice, PO QD days 1-14, mg/kg: Telmisartan 3, Bemithyl 200, Repirinast 30, Telmisartan+Bemithyl 3+200, Telmisartan+Repirinast 3+30, Cenicriviroc 40, Bromantane 40",32%
"CCc1nc(C)ccc1O [Emoxypine, 2-Ethyl-6-methyl-3-hydroxypyridine]","BUN in comparison to control groups, in words",[1],less renal dysfunction and disease progression than the positive control treatment
same,"Kidney fibrosis / Histology Score, significance and comparison in words",[6],the same as the positive control treatment group; also recorded: significant reductions in kidney fibrosis; also recorded: significant reduction in fibrosis compared to vehicle
"CS(=O)(=O)Nc1cc2occ(NC=O)c(=O)c2cc1Oc1ccccc1 [Iguratimod, N-(7-(Methylsulfonamido)-4-oxo-6-phenoxy-4H-chromen-3-yl)formamide]","Reduction in BUN compared to vehicle, significance in words",[1],significant reductions in BUN
same,"BUN in comparison to control groups, in words",[1],less renal dysfunction and disease progression than the positive control treatment; also recorded: decreased in comparison to the sham surgery control group
"O=C(O)c1ccccc1Nc1cc(Cl)ccc1C(=O)O [Lobenzarit, 2-[(2-Carboxyphenyl)amino]-4-chlorobenzoic acid]","Reduction in BUN compared to vehicle, significance in words",[1],significant reductions in BUN
same,"BUN in comparison to control groups, in words",[1],less renal dysfunction and disease progression than the positive control treatment; also recorded: decreased in comparison to the sham surgery control group
CCCOc1ccc(S(=O)(=O)NCCC2CCCN2C)cc1-c1nc(=O)c2c([nH]1)c(CCC)nn2C (stereo not shown) [Udenafil],"Reduction in BUN compared to vehicle, significance in words",[1],significant reductions in BUN
same,"BUN in comparison to control groups, in words",[1],less renal dysfunction and disease progression than the positive control treatment; also recorded: decreased in comparison to the sham surgery control group
same,"Kidney fibrosis / Histology Score, significance and comparison in words",[6],significant reductions in kidney fibrosis; also recorded: significant reduction in fibrosis compared to vehicle
